Laboratory results taken from patent publication US10076519B2 (CYTOKINETICS, INC., priority 2010, dated 2018).

The molecules below were run on rabbit skeletal myofibrils (fast skeletal myofibrils) (assay: Activation of fast skeletal myofibrils (PUMA assay, PK/LDH-coupled ATPase at pCa25)). Settings: AC1.4 determined according to the procedure of Example 39; reported as class symbols.
Assay type: biochemical
In short: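 ATPase activity of Triton-washed rabbit skeletal myofibrils, roughly 90% fast fibres, tracked by NADH loss at 340 nm through a PK/LDH-coupled ADP-regenerating system. Calcium set to 25% of maximal activity (pCa25), in PIPES 12 mM pH 6.8 with 2 mM MgCl2 and 1 mM DTT; AC1.4 reported.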
COc1ccc(-c2ccc(NCC(C)(C)c3ccc(F)cc3)nn2)nc1 [[2-(4-fluorophenyl)-2-methylpropyl][6-(5-methoxy(2-pyridyl))pyridazin-3-yl]amine] was tested, and the “Mean AC1.4” value was “B (B=1-10 uM)”. With NC(=O)c1ccc(F)c(-c2ccc(NCC3(c4ncccc4F)CCC3)nn2)c1 the “Mean AC1.4” value was “A (A=<1 uM)”. In the case of CC(C)(CNc1ccc(-c2ccc3c(c2)NC(=O)C3(C)C)nn1)c1ccc(F)cc1 [6-(6-{[2-(4-fluorophenyl)-2-methylpropyl]amino}pyridazin-3-yl)-3,3-dimethylindolin-2-one], the “Mean AC1.4” value is reported as “D (D=>20 uM)”. Nc1cccc(-c2ccc(NCC3(c4ncccc4F)CCC3)nn2)c1 [[6-(3-aminophenyl)pyridazin-3-yl]{[(3-fluoro(2-pyridyl))cyclobutyl]methyl}amine] was tested, and the “Mean AC1.4” value was “A (A=<1 uM)”. With CC(C)(C)OC(=O)N(CC(C)(C)c1ccc(F)cc1)c1ccc(-c2cc(=O)[nH]c(N)n2)nn1 the “Mean AC1.4” value was “B (B=1-10 uM)”. NC(=O)c1cccc(-c2ccc(NCC(CC3OCCO3)c3ccccc3F)nn2)c1 (stereo not drawn) was tested, and the “Mean AC1.4” value was “D (D=>20 uM)”. For CC(CNc1ccc(-c2cccc(C(N)=O)c2)nn1)N1CCCCC1 (stereo not drawn) [3-{6-[(2-piperidylpropyl)amino]pyridazin-3-yl}benzamide], the “Mean AC1.4” value was “D (D=>20 uM)”. In the case of CC(C)(C)CCNc1ccc(-c2cccc(C(N)=O)c2)nn1 [3-{6-[(3,3-dimethylbutyl)amino]pyridazin-3-yl}benzamide], the “Mean AC1.4” value is reported as “D (D=>20 uM)”. For NC(=O)c1cccc(-c2ccc(NCCc3ccc(Cl)cc3Cl)nn2)c1, the “Mean AC1.4” value was “C (C=10-20 uM)”. For CC(C)(CNc1ccc(-c2cccc(CO)c2)nn1)c1ccc(F)cc1 [[3-(6-{[2-(4-fluorophenyl)-2-methylpropyl]amino}pyridazin-3-yl)phenyl]methan-1-ol], the “Mean AC1.4” value was “B (B=1-10 uM)”. CC(C)(CNc1ccc(-c2cccc(C(N)=O)n2)nn1)c1ccc(F)cc1 [6-(6-{[2-(4-fluorophenyl)-2-methylpropyl]amino}pyridazin-3-yl)pyridine-2-carboxamide] was tested, and the “Mean AC1.4” value was “B (B=1-10 uM)”.

Same assay, conditions: median AC1.4 class, procedure of Example 39
For Cc1ncccc1-c1ccc(NCC2(c3ncccc3F)CCC2)nn1 [{[(3-fluoro(2-pyridyl))cyclobutyl]methyl}[6-(2-methyl(3-pyridyl))pyridazin-3-yl]amine], the “Mean AC1.4” value was “C (C=10-20 uM)”. Fc1cccnc1C1(CNc2ccc(-c3ncc(-c4cc[nH]n4)s3)nn2)CCC1 [{[(3-fluoro(2-pyridyl))cyclobutyl]methyl}[6-(5-pyrazol-3-yl(1,3-thiazol-2-yl))pyridazin-3-yl]amine] was tested, and the “Mean AC1.4” value was “A (A=<1 uM)”. COc1cccnc1C1(Nc2ccc(-c3cc(C(N)=O)ccc3F)nn2)CCC1 was tested, and the “Mean AC1.4” value was “C (C=10-20 uM)”. With CC(C)(CNc1ccc(-c2ncc(C(N)=O)s2)nn1)c1ncccc1F [2-(6-{[2-(3-fluoro(2-pyridyl))-2-methylpropyl]amino}pyridazin-3-yl)-1,3-thiazole-5-carboxamide] the “Mean AC1.4” value was “A (A=<1 uM)”. For Fc1cccnc1[C@]1(CNc2ccc(-c3cccc(-c4nn[nH]n4)c3)nn2)C[C@@H](F)C1 [[6-(3-(2H-1,2,3,4-tetraazol-5-yl)phenyl)pyridazin-3-yl]{[3-fluoro-1-(3-fluoro(2-pyridyl))cyclobutyl]methyl}amine], the “Mean AC1.4” value was “A (A=<1 uM)”. CC(C)(Nc1ccc(-c2cc(C(N)=O)ccc2F)nn1)c1ncccc1Cl [3-(6-{[1-(3-chloro(2-pyridyl))-isopropyl]amino}pyridazin-3-yl)-4-fluorobenzamide] was tested, and the “Mean AC1.4” value was “B (B=1-10 uM)”. For O=C(N[C@@H]1CCNC1)c1ccc(F)c(-c2ccc(NC[C@]3(c4ncccc4F)C[C@H](F)C3)nn2)c1 [N-((3R)pyrrolidin-3-yl){4-fluoro-3-[6-({[3-fluoro-1-(3-fluoro(2-pyridyl))cyclobutyl]methyl}ami-no)pyridazin-3-yl]phenyl}carboxamide], the “Mean AC1.4” value was “B (B=1-10 uM)”. In the case of O=c1[nH]nc(-c2cnc(-c3ccc(NCC4(c5ncccc5F)CCC4)nn3)s2)[nH]1 [3-{2-[6-({[(3-fluoro-2-pyridyl)cyclobutyl]methyl}ami-no)pyridazin-3-yl]-1,3-thiazol-5-yl}-1,2,4-triazolin-5-one], the “Mean AC1.4” value is reported as “A (A=<1 uM)”. NC(=O)c1cnc(-c2ccc(NCC3(c4ccccn4)CCC3)nn2)s1 [2-(6-{[(2-pyridylcyclobutyl)methyl]ami-no}pyridazin-3-yl)-1,3-thiazole-5-carboxamide] was tested, and the “Mean AC1.4” value was “A (A=<1 uM)”. In the case of O=C(NCC(O)CO)c1cnc(-c2ccc(NCC3(c4ncccc4F)CCC3)nn2)s1 (stereo not drawn) [N-(2,3-dihydroxypropyl){2-[6-({[(3-fluoro(2-pyridyl))cyclobutyl]methyl}ami-no)pyridazin-3-yl](1,3-thiazol-5-yl)}carboxamide], the “Mean AC1.4” value is reported as “A (A=<1 uM)”. COc1cc(-c2ccc(NCC3(c4ncccc4F)CCC3)nn2)ccc1C(=O)O was tested, and the “Mean AC1.4” value was “D (D=>20 uM)”. CC(C)(O)c1ccc(NCC2(c3ncccc3F)CCC2)nn1 was tested, and the “Mean AC1.4” value was “D (D=>20 uM)”. With CC(C)C(=O)NCc1cnc(-c2ccc(NCC3(c4ncccc4F)CCC3)nn2)s1 [N-({2-[6-({[(3-fluoro(2-pyridyl))cyclobutyl]methyl}ami-no)pyridazin-3-yl](1,3-thiazol-5-yl)}methyl)-2-methylpropanamide] the “Mean AC1.4” value was “A (A=<1 uM)”. For Fc1cccnc1C1(CNc2ccc(-c3ccc4cn[nH]c4c3)nn2)CC(F)(F)C1 [(6-(1H-indazol-6-yl)pyridazin-3-yl){[3,3-difluoro-1-(3-fluoro(2-pyridyl))cyclobutyl]methyl}amine], the “Mean AC1.4” value was “B (B=1-10 uM)”.

Same assay, conditions: median AC1.4 reported as class; procedure of Example 39
NC(=O)C1CCCC1NC(=O)c1ccc(NCC2(c3ncccc3F)CCC2)nn1 (stereo not drawn) [2-{[6-({[(3-fluoro-2-pyridyl)cyclobutyl]methyl}ami-no)pyridazin-3-yl]carbonylamino}cyclopentane-carboxamide] was tested, and the “Mean AC1.4” value was “D (D=>20 uM)”. O=C(NC1CCOCC1)c1cccc(-c2ccc(NC[C@]3(c4ncccc4F)C[C@H](F)C3)nn2)c1 [N-(2H-3,4,5,6-tetrahydropyran-4-yl){3-[6-({[3-fluoro-1-(3-fluoro(2-pyridyl))cyclobutyl]methyl}ami-no)pyridazin-3-yl]phenyl}carboxamide] was tested, and the “Mean AC1.4” value was “B (B=1-10 uM)”. In the case of Cc1cc(NCC2(c3ncccc3F)CCC2)nnc1-c1ncc(CC(=O)O)s1 [2-{2-[6-({[(3-fluoro(2-pyridyl))cyclobutyl]methyl}amino)-4-methylpyridazin-3-yl]-1,3-thiazol-5-yl}acetic acid], the “Mean AC1.4” value is reported as “B (B=1-10 uM)”. For O=C1CC[C@@H](NC(=O)c2ccc(NCC3(c4ncccc4F)CCC3)nn2)CN1 [N-((3R)-6-oxo(3-piperidyl))[6-({[(3-fluoro(2-pyridyl))cyclobutyl]methyl}ami-no)pyridazin-3-yl]carboxamide], the “Mean AC1.4” value was “D (D=>20 uM)”. With O=C(O)c1cc2cc(-c3ccc(NC[C@]4(c5ncccc5F)C[C@H](F)C4)nn3)ccc2[nH]1 [5-[6-({[3-fluoro-1-(3-fluoro(2-pyridyl))cyclobutyl]methyl}ami-no)pyridazin-3-yl]indole-2-carboxylic acid] the “Mean AC1.4” value was “B (B=1-10 uM)”.
